Three compounds from patent US11207285B2, “Diabetes treatment regimens using alpha, alpha-substituted long-chain amphipathic carboxylates” (SYNDROMEX LTD., priority 2016, dated 2021) can be followed below.

Data set [1] has as its system C57BL/KsJ (db/db) Spontaneous T2D mice. Nature of the data set: glucose lowering effect in db/db mice. Format: in vivo. The settings on record: once daily oral 30 mg/kg. The method, then:
In addition, the glucose lowering effect of the above three compounds M16αα, M18αα and M20αα was tested in C57BL/KsJ (db/db) Spontaneous T2D mice, which serve as a model for T2D. These animals are characterized by hyperphagia, obesity, hyperglycemia and insulin resistance. The mice were treated once daily by oral administration of the tested compound at 30 mg/kg.

Data set [2] has as its system fully differentiated 3T3L1 adipocytes. The data set is described as follows: glucose uptake in 3T3L1 adipocytes. Format: cell-based. The settings on record: insulin as positive control. The method, then: (§1) The compound 2,2,15,15-tetramethylhexadecane-1,16-dioic acid (also designated M16αα), and also the compounds […] (M18αα) and 2,2,19,19-tetramethyl-[…]-1,20-dioic acid (M20αα), were tested for their effect on glucose uptake and production, and the expression of glucose- and lipid-related genes in in vitro models. […] Inhibition of glucose production was tested in HepG2 human liver cells.

Data set [3] concerns cultured human HepG2 liver cells. Nature of the data set: inhibition of lipoprotein production in HepG2 cells. Format: cell-based.
The next data set has as its system HepG2 human liver cells. Nature of the data set: inhibition of glucose production in HepG2 cells. Format: cell-based. Here is the method: as §1
Data set [4] deals with genes that control liver gluconeogenesis and lipid synthesis. Nature of the data set: expression of glucose- and lipid-related genes in in vitro models. The data set is classed as cell-based. Here is the method:
as §1

Another data set is described as follows: half-life in humans. The settings on record: human, in vivo, read-out: half-life (T1/2) (converted). The data set is classed as in vivo. The text has this:
(§2) The half-life (T1/2) of Medica compounds in humans differs considerably from their half-life in model animals. […] This difference in half-life could not be expected, and is of considerable significance when designing a new treatment protocol for humans.

The next data set can be described thus: half-life in dogs. The settings on record: dog, in vivo, read-out: half-life (T1/2) (converted).
Description: as §2

Another data set in a line: half-life in rats. The settings on record: rat, in vivo, read-out: half-life (T1/2) (converted).
Description: as §2

In the case of `CC(C)(CCCCCCCCCCCCCCC(C)(C)C(=O)O)C(=O)O` [M18αα, 2,2,17,17-tetramethylocta-decane-1,18-dioic acid], in data set [1], the blood glucose levels entry is on record as “significantly decrease”, the serum insulin levels result is “significantly decrease” and the serum triglyceride levels entry is “significantly decrease”. In data set [2], the glucose uptake entry is listed as “increase glucose uptake”. The lipoprotein production result in data set [3] is “significant or full inhibition”. Besides, the hepatic glucose production result with HepG2 human liver cells is on record as “significant or full inhibition”. In addition, the “expression of genes that control liver gluconeogenesis and lipid synthesis” value in data set [4] is “effective in inhibiting”.
Consider `CC(C)(CCCCCCCCCCCCCCCCC(C)(C)C(=O)O)C(=O)O` [M20αα], for which, in data set [1], the blood glucose levels result is “significantly decrease”, the serum insulin levels result is listed as “significantly decrease” and the serum triglyceride levels entry was “significantly decrease”. The glucose uptake result in data set [2] is listed as “increase glucose uptake”. In data set [3], the lipoprotein production result is reported as “significant or full inhibition”. Besides, in the data set on HepG2 human liver cells, the hepatic glucose production result is given as “significant or full inhibition”. Moreover, the “expression of genes that control liver gluconeogenesis and lipid synthesis” value in data set [4] is given as “effective in inhibiting”.
Consider `CC(C)(CCCCCCCCCCC(C)(C)CC(=O)O)CC(=O)O` [Medica16-ββ, 3,3,14,14-tetramethylhexadecanedioic acid, reference compound], for which the half-life in the data set “half-life in humans” was 1890 ± 768 min; in “half-life in dogs”, 1550 min; in the data set “half-life in rats” it was 162 ± 24 min.
